Laboratory results as given in publication PMC12655551, “Design, Synthesis, and Evaluation of Pyrrole-Based Selective MAO-B Inhibitors with Additional AChE Inhibitory and Neuroprotective Properties Identified via Virtual Screening” (Pharmaceuticals, 2025).

Legend:
[1] = target: T1, recombinant human MAO-B (hMAOB) (Homo sapiens, UniProt P27338); assay: biochemical; format: biochemical; settings: for inhibition at 1 µM: 1 µM compound; for IC50: means ± SD of three experiments
T1 sequence (P27338 1-520): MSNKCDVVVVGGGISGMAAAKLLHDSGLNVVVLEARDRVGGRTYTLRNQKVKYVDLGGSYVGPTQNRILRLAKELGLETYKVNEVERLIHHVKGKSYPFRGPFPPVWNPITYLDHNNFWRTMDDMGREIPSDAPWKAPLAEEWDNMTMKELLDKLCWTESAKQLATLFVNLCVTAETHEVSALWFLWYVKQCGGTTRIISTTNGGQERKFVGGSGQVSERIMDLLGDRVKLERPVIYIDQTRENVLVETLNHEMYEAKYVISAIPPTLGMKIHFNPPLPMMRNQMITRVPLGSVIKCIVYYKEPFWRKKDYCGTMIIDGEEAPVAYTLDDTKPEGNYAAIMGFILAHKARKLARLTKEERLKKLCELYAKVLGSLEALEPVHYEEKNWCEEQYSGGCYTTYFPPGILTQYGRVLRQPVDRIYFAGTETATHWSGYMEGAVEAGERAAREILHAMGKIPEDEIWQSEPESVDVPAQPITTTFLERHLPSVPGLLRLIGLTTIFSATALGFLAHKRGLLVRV
Description: (§1) Monoamine oxidase (MAO) activity for both recombinant human MAO-A (hMAOA) and MAO-B (hMAOB) was assessed using a fluorometric assay based on the Amplex® UltraRed reagent. This method, originally reported by Bautista-Aguilera et al. and later adapted with minor changes by Kasabova-Angelova et al., detects hydrogen peroxide or peroxidase activity present in enzymes or biological samples. In this assay, Amplex® Red reacts in a 1:1 molar ratio with hydrogen peroxide in the presence of peroxidase, producing the red-fluorescent compound resorufin. Due to resorufin’s strong extinction coefficient (58,000 ± 5000 cm^−1·M^−1), measurements could be accurately taken using either fluorometric or spectrophotometric methods. […] The control conditions included the use of purified hMAOA or hMAOB in reaction buffer, enzyme solutions with hydrogen peroxide, and buffer alone. All the test compounds were initially prepared at a 1 µM final concentration. These compounds were combined with either hMAOA or hMAOB and loaded into a 96-well plate (with eight replicates per test compound), followed by incubation for 30 min at 37 °C in the dark. Subsequently, a 50 µL detection mix was added to each well. This mix contained Amplex® Red, horseradish peroxidase (HRP), and tyramine substrate, all prepared in a reaction buffer. As this enzymatic reaction proceeded continuously, the fluorescence signal was recorded every 30 min (at 0, 30, 60, 90, 120, and 150 min) to track enzymatic kinetics.

[2] = target: T2, AChE (Electrophorus electricus, UniProt O42275); assay: biochemical; format: biochemical; settings: for inhibition at 200 µM: 200 µM compound; for IC50: means ± SD of three experiments
T2 construct: purchased Sigma-Aldrich, Hamburg, Germany
Description: (§2) AChE and BChE inhibitory activity of the newly synthesized pyrrole-based compounds was measured using the microplate assay described by Ellman et al. with the modifications added by López et al.. The compounds were tested at concentrations between 0.01 and 200 μM. First, they were dissolved in phosphate buffer (PBS) (8 mM K2HPO4, 2.3 mM NaH2PO4, 0.15 M NaCl, pH 7.5), assisted by the addition of no more than 5% MeOH. Then, they were serially diluted with PBS to provide the concentration range needed. Acetylcholinesterase from Electrophorus electricus and butyrylcholinesterase from equine serum (Sigma-Aldrich, Hamburg, Germany) were used with a substrate solution of 5,5′-dithiobis(2-nitrobenzoic acid) (DTNB) with acetylthiocholine iodide (ATCI) or butyrylthiocholine iodide (BTCI), respectively (0.04 M Na2HPO4, 0.2 mM DTNB, 0.24 mM ATCI or BTCI, pH 7.5). A total of 50 μL of AChE or BChE (0.25 U/mL, in PBS) and 50 μL of the tested compound solution were added to the wells. Incubation of the plates was performed at room temperature for 30 min. Then, 100 μL of substrate solution was added to start the enzymatic reaction. […] Enzyme activity was calculated as an inhibition percentage compared to an assay including buffer instead of an inhibitor.

[3] = target: T3, BChE (Equus caballus, UniProt P81908); assay: biochemical; settings: for IC50: means ± SD of three experiments, read-out: BChE IC50; for inhibition at 200 µM: read-out: Inhibition Activity 200 µM BChE
T3 construct: purchased Sigma-Aldrich, Hamburg, Germany; host or cells: equine serum
Description: as §2

[4] = target: T4, recombinant human MAO-A (hMAOA) (Homo sapiens, UniProt P21397); assay: MAO-A inhibition, fluorometric Amplex UltraRed assay; format: biochemical; settings: for inhibition at 1 µM: 1 µM compound, read-out: Inhibition Activity 1 µM MAO-A; for IC50: means ± SD of three experiments, read-out: MAO-A IC50
T4 sequence (P21397 1-527): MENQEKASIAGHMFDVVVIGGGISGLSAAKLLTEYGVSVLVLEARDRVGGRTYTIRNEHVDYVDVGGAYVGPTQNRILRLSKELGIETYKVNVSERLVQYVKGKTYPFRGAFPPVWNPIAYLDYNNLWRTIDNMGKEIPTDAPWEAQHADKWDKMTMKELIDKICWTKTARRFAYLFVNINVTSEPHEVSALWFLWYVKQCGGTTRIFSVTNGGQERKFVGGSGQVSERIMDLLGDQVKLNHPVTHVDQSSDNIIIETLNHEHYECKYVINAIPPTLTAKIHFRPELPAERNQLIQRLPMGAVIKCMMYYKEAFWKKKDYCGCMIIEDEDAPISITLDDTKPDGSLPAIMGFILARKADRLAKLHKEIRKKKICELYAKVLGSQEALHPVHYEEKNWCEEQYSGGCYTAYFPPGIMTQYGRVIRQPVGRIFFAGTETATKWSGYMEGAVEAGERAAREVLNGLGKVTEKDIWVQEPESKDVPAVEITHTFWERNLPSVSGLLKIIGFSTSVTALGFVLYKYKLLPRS
Description: as §1

T2 sequence (O42275 24-633): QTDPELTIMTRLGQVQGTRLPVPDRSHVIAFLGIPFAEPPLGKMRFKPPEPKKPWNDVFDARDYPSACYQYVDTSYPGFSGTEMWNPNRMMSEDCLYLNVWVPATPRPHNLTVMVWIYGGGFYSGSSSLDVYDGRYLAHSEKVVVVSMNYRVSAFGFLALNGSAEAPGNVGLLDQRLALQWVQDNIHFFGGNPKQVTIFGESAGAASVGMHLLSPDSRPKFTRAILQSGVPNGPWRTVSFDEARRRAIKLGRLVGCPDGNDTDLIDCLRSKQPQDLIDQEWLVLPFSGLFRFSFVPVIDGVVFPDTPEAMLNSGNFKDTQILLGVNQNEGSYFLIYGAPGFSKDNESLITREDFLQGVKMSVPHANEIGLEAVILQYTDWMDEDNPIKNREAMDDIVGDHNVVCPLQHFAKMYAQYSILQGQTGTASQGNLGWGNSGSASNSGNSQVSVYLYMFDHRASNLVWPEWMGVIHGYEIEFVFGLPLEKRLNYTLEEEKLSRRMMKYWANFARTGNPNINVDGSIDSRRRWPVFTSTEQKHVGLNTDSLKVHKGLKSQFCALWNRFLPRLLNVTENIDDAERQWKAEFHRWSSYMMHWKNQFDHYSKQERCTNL
T3 sequence (P81908 whole entry): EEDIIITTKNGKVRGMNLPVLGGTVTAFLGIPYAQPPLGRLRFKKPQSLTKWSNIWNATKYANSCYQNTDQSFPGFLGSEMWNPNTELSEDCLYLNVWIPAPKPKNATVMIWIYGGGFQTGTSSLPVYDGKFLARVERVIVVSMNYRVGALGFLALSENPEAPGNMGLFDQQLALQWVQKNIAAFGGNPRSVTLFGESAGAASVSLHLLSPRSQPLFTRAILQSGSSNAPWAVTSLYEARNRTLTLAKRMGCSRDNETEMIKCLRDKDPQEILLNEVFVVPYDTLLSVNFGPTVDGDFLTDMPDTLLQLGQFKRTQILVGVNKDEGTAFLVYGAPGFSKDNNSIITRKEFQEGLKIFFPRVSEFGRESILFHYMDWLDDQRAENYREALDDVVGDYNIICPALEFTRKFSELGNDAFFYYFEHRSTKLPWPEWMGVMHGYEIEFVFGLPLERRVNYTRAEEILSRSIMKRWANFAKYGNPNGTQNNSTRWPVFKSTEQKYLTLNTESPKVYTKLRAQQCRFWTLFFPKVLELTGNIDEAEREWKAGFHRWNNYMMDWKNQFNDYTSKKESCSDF

SMILES: Cc1ccc(C)n1CCc1ccc(Cl)cc1 [EM-DC-8, 1-[2-(4-chlorophenyl)ethyl]-2,5-dimethyl-1H-pyrrole]
- inhibition at 1 µM [1]: 99 ± 7.1%
- IC50 [1]: > 100 µM
- inhibition at 200 µM [2]: 31.1 ± 2.48%
- IC50 [2]: > 200 µM
- IC50 [3]: > 200 µM
- inhibition at 200 µM [3]: 35.4 ± 2.91%
- inhibition at 1 µM [4]: 99 ± 7.3%
- IC50 [4]: > 100 µM

SMILES: Cc1ccc(C)n1C(Cc1ccc(O)cc1)C(=O)O (stereo not drawn) [EM-DC-20, 2-(2,5-dimethyl-1H-pyrrol-1-yl)-3-(4-hydroxyphenyl)propanoic acid]
- inhibition at 1 µM [1]: 75 ± 7.1%
- IC50 [1]: 0.62 ± 0.1 µM
- inhibition at 200 µM [2]: 0%
- IC50 [2]: > 200 µM
- IC50 [3]: > 200 µM
- inhibition at 200 µM [3]: 0%
- inhibition at 1 µM [4]: 75 ± 6.4%
- IC50 [4]: 0.6 ± 0.1 µM

SMILES: Cc1ccc(C)n1C(Cc1ccc(O)c(O)c1)C(=O)O (stereo not drawn) [EM-DC-23, 3-(3,4-dihydroxyphenyl)-2-(2,5-dimethyl-1H-pyrrol-1-yl)propanoicacid]
- inhibition at 1 µM [1]: 98 ± 7.1%
- IC50 [1]: > 100 µM
- inhibition at 200 µM [2]: 21.8 ± 2.14%
- IC50 [2]: > 200 µM
- IC50 [3]: > 200 µM
- inhibition at 200 µM [3]: 0%
- inhibition at 1 µM [4]: 98 ± 7.3%
- IC50 [4]: > 100 µM

SMILES: Cc1ccc(C)n1CCN1CCOCC1 [EM-DC-16, 4-[2-(2,5-dimethyl-1H-pyrrol-1-yl)ethyl]morpholine]
- inhibition at 1 µM [1]: 80 ± 7.1%
- IC50 [1]: 0.47 ± 0.1 µM
- inhibition at 200 µM [2]: 85.3 ± 2.43%
- IC50 [2]: 11.8 ± 1.1 µM
- IC50 [3]: > 200 µM
- inhibition at 200 µM [3]: 48.8 ± 1.5%
- inhibition at 1 µM [4]: 80 ± 7.3%
- IC50 [4]: 0.46 ± 0.1 µM

SMILES: Cc1ccc(C)n1-c1ccccc1Br [EM-DC-3, 1-(2-bromophenyl)-2,5-dimethyl-1H-pyrrole]
- inhibition at 1 µM [1]: 75 ± 7.1%
- IC50 [1]: 0.56 ± 0.1 µM
- inhibition at 200 µM [2]: 8.32 ± 2.64%
- IC50 [2]: > 200 µM
- IC50 [3]: > 200 µM
- inhibition at 200 µM [3]: 0.04 ± 9.01%
- inhibition at 1 µM [4]: 70 ± 7.2%
- IC50 [4]: 0.52 ± 0.1 µM

SMILES: Cc1ccc(C)n1CC(C)c1ccc(O)cc1 (stereo not drawn) [EM-DC-11, 4-[1-(2,5-dimethyl-1H-pyrrol-1-yl)propan-2-yl]phenol]
- inhibition at 1 µM [1]: 97 ± 7.1%
- IC50 [1]: > 100 µM
- inhibition at 200 µM [2]: 29 ± 2.47%
- IC50 [2]: > 200 µM
- IC50 [3]: > 200 µM
- inhibition at 200 µM [3]: 30.6 ± 2.11%
- inhibition at 1 µM [4]: 97 ± 6.9%
- IC50 [4]: > 100 µM

SMILES: Cc1ccc(C)n1C(C)(C)CO [EM-DC-14, 2-(2,5-dimethyl-1H-pyrrol-1-yl)-2-methylpropan-1-ol]
- inhibition at 1 µM [1]: 75 ± 7.1%
- IC50 [1]: 0.46 ± 0.1 µM
- inhibition at 200 µM [2]: 33.2 ± 2.03%
- IC50 [2]: > 200 µM
- IC50 [3]: > 200 µM
- inhibition at 200 µM [3]: 0%
- inhibition at 1 µM [4]: 75 ± 7.1%
- IC50 [4]: 0.44 ± 0.1 µM

SMILES: Cc1ccc(C)n1CCc1ccc(O)cc1 [EM-DC-9, 4-[2-(2,5-dimethyl-1H-pyrrol-1-yl)ethyl]phenol]
- inhibition at 1 µM [1]: 98 ± 7.1%
- IC50 [1]: > 100 µM
- inhibition at 200 µM [2]: 72.9 ± 3.02%
- IC50 [2]: 76.8 ± 4.68 µM
- IC50 [3]: 69.5 ± 7.52 µM
- inhibition at 200 µM [3]: 73.7 ± 4.5%
- inhibition at 1 µM [4]: 98 ± 6.8%
- IC50 [4]: > 100 µM

SMILES: COc1cc2c(cc1OC)C(=O)C(CC1CCN(Cc3ccccc3)CC1)C2 (stereo not drawn) [Donepezil, reference compound]
- inhibition at 200 µM [3]: 92.25 ± 0.22%

SMILES: COc1ccc2c3c1O[C@H]1C[C@@H](O)C=C[C@@]31CCN(C)C2 [Galanthamine, reference compound]
- inhibition at 200 µM [3]: 89.16 ± 0.44%
